Patent US6599932B1, “Alpha, beta-unsaturated sulfones for treating proliferative disorders” (Temple University-Of The Commonwealth System of Higher …, priority 2000, dated 2003)

Legend:
Type in all cases: cell-based
Parameters in all cases: dose or concentration left out as unconfirmed
[1] = test system: breast tumor cell line BT-20; assay: Viability assay, Trypan blue exclusion, breast tumor cell line BT-20; conditions: for cytotoxicity: Homo sapiens, BT-20, 96 hours, read-out: percent cell death (% Death), BT20; for percent cell death (% Death), BT20: 96 hours
Procedure: (§1) The effect of the sulfones on normal fibroblasts and on tumor cells of prostate, colon, lung and breast origin was examined utilizing the following cell lines: prostate tumor cell line DU-145; colorectal carcinoma cell line DLD-1; non-small cell lung carcinoma cell line H157; and breast tumor cell line BT-20. BT-20 is an estrogen-unresponsive cell line. NIH/3T3 and HFL are normal murine and human fibroblasts, respectively. BT-20, DLD-1 and H157 were grown in Dulbecco's modified Eagle's medium (DMEM) containing 10% fetal bovine serum supplemented with penicillin and streptomycin. DU145 was cultured in RPMI with 10% fetal bovine serum containing penicillin and streptomycin. NIH3T3 and HFL cells were grown in DMEM containing 10% calf serum supplemented with penicillin and streptomycin. All cell cultures were maintained at 37° C. in a humidified atmosphere of 5% CO2.
(§2) Cells were treated with test compound […] concentration and cell viability was determined after 96 hours by the Trypan blue exclusion method. Activity for each compound is reported as a range of cell induced death (% Death) with the lowest activity in the range of 5-10%.

[2] = test system: non-small cell lung carcinoma cell line H157; assay: Viability assay, Trypan blue exclusion, non-small cell lung carcinoma cell line H157; conditions: for cytotoxicity: Homo sapiens, NCI-H157, 96 hours, read-out: percent cell death (% Death), H157; for percent cell death (% Death), H157: 96 hours
Procedure: as §1, §2

[3] = test system: colorectal carcinoma cell line DLD-1; assay: Viability assay, Trypan blue exclusion, colorectal carcinoma cell line DLD-1; conditions: for cytotoxicity: Homo sapiens, DLD-1, 96 hours, read-out: percent cell death (% Death), DLD-1; for percent cell death (% Death), DLD-1: 96 hours
Procedure: as §1, §2

[4] = test system: prostate tumor cell line DU-145; assay: Viability assay, Trypan blue exclusion, prostate tumor cell line DU-145; conditions: for cytotoxicity: Homo sapiens, DU-145, 96 hours, read-out: percent cell death (% Death), DU145; for percent cell death (% Death), DU145: 96 hours
Procedure: as §1, §2

SMILES | cytotoxicity [1] | cytotoxicity [2] | cytotoxicity [3] | cytotoxicity [4] | percent cell death (% Death), BT20 [1] | percent cell death (% Death), H157 [2] | percent cell death (% Death), DLD-1 [3] | percent cell death (% Death), DU145 [4]
O=S(=O)(/C=C/c1cccs1)Cc1ccc(Cl)cc1 [Example 11, (E)-2-Thiopheneethenyl4-chlorobenzylsulfone] | 5 to 10% | 5 to 10% | 5 to 10% | 5 to 10% | – | – | – | –
O=S(=O)(/C=C/c1cccs1)Cc1ccc(F)cc1 [Example 10, (E)-2-Thiopheneethenyl-4-fluorobenzylsulfone] | 5 to 10% | 5 to 10% | 5 to 10% | 5 to 10% | – | – | – | –
O=S(=O)(/C=C/c1ccc(F)cc1)Cc1cccc2ccccc12 [Example 68, (E)-4-Fluorostyryl-1-(naphthylmethyl)sulfone] | 5 to 10% | 5 to 10% | 5 to 10% | 5 to 10% | – | – | – | –
O=S(=O)(/C=C/c1cccc2ccccc12)Cc1ccc(Cl)cc1 [Example 64, (E)-1-Naphthaleneethenyl-4-chlorobenzylsulfone] | 10 to 15% | 10 to 15% | 10 to 15% | 10 to 15% | – | – | – | –
O=S(=O)(/C=C/c1ccncc1)Cc1ccc(Br)cc1 [Example 9, (E)-4-Pyridineethenyl-4-bromobenzylsulfone] | 5 to 10% | 5 to 10% | 5 to 10% | 5 to 10% | – | – | – | –
COc1ccc(CS(=O)(=O)/C=C/c2csc([N+](=O)[O-])c2)cc1 [Example 58, (E)-2-Nitro-4-thiopheneethenyl-4-methoxybenzylsulfone] | 40 to 50% | > 80% | > 80% | 50 to 60% | – | – | – | –
O=S(=O)(/C=C/c1cccnc1)Cc1ccc(Br)cc1 [Example 8, (E)-3-Pyridineethenyl-4-bromobenzylsulfone] | 10 to 15% | 10 to 15% | 10 to 15% | 10 to 15% | – | – | – | –
O=S(=O)(/C=C/c1cc(Br)cs1)Cc1ccc(Br)cc1 [Example 15, (E)-4-Bromo-2-thiopheneethenyl-4-bromobenzylsulfone] | 5 to 10% | 5 to 10% | 5 to 10% | 5 to 10% | – | – | – | –
O=S(=O)(/C=C/c1c2ccccc2cc2ccccc12)Cc1ccc(F)cc1 [Example 74, (E)-9-Anthraceneethenyl-4-fluorobenzylsulfone] | 50 to 60% | > 80% | 50 to 60% | 40 to 50% | – | – | – | –
COc1ccc(CS(=O)(=O)/C=C/C2=CS(=O)(=O)C=C2)cc1 [Example 36, (E)-3-Thiophene-1,1-dioxoethenyl-4-methoxybenzylsulfone] | – | – | – | – | + ((+)=5-10%) | + ((+)=5-10%) | + ((+)=5-10%) | + ((+)=5-10%)
O=[N+]([O-])c1cc(/C=C/S(=O)(=O)Cc2ccc(Cl)cc2)cs1 [Example 55, (E)-2-Nitro-4-thiopheneethenyl-4-chlorobenzylsulfone] | 5 to 10% | 5 to 10% | 50 to 60% | 10 to 15% | – | – | – | –
O=S(=O)(/C=C/c1ccccn1)Cc1ccc(F)cc1 [Example 1, (E)-2-Pyridineethenyl-4-fluorobenzylsulfone] | 5 to 10% | 5 to 10% | 5 to 10% | 5 to 10% | – | – | – | –
O=S(=O)(/C=C/c1ccc2ccccc2c1)Cc1ccc(Br)cc1 [Example 67, (E)-2-Naphthaleneethenyl-4-bromobenzylsulfone] | 5 to 10% | 5 to 10% | 5 to 10% | 5 to 10% | – | – | – | –
O=S(=O)(/C=C/c1ccsc1)Cc1ccc(Br)cc1 [Example 24, (E)-3-Thiopheneethenyl-4-bromobenzylsulfone] | 40 to 50% | 40 to 50% | 40 to 50% | 40 to 50% | – | – | – | –
O=S(=O)(/C=C/c1ccc2ccccc2c1)Cc1ccc(F)cc1 [Example 63, (E)-2-Naphthaleneethenyl-4-fluorobenzylsulfone] | 5 to 10% | 5 to 10% | 5 to 10% | 5 to 10% | – | – | – | –
O=S(=O)(/C=C/c1ccncc1)Cc1ccc(Cl)cc1 [Example 6, (E)4-Pyridineethenyl4-chlorobenzylsulfone] | 5 to 10% | 5 to 10% | 5 to 10% | 5 to 10% | – | – | – | –
O=S(=O)(/C=C/c1cccnc1)Cc1ccc(F)cc1 [Example 2, (E)-3-Pyridineethenyl-4-fluorobenzylsulfone] | 5 to 10% | 5 to 10% | 5 to 10% | 5 to 10% | – | – | – | –
O=S(=O)(/C=C/c1ccoc1)Cc1ccc(I)cc1 [Example 44, (E)-3-Furanethenyl-4-iodobenzylsulfone] | > 80% | > 80% | > 80% | > 80% | – | – | – | –
O=[N+]([O-])c1ccc(CS(=O)(=O)/C=C/c2ccsc2)cc1 [Example 32, (E)-3-Thiopheneethenyl4-nitrobenzylsulfone] | 5 to 10% | 5 to 10% | 5 to 10% | 5 to 10% | – | – | – | –
O=S(=O)(/C=C/c1ccsc1)Cc1ccc(Cl)cc1Cl [Example 29, (E)-3-Thiopheneethenyl-2,4-dichlorobenzylsulfone] | 50 to 60% | 50 to 60% | 50 to 60% | 50 to 60% | – | – | – | –
O=S(=O)(/C=C/c1cccc2ccccc12)Cc1ccc(F)cc1 [Example 62, (E)-1-Naphthaleneethenyl-4-fluorobenzylsulfone] | 5 to 10% | 5 to 10% | 5 to 10% | 5 to 10% | – | – | – | –
O=S(=O)(/C=C/c1ccoc1)Cc1ccc(Cl)cc1Cl [Example 48, (E)-3-Furanethenyl-2,4-dichlorobenzylsulfone] | > 80% | > 80% | > 80% | > 80% | – | – | – | –
O=S(=O)(/C=C/c1ccsc1)Cc1ccc(OC(F)(F)F)cc1 [Example 28, (E)-3-Thiopheneethenyl-4-trifloromethoxylbenzylsulfone] | – | – | – | – | + ((+)=5-10%) | + ((+)=5-10%) | + ((+)=5-10%) | + ((+)=5-10%)
O=[N+]([O-])c1ccc(CS(=O)(=O)/C=C/c2ccoc2)cc1 [Example 51, (E)-3-Furanethenyl-4-nitrobenzylsulfone] | 5 to 10% | 5 to 10% | 5 to 10% | 5 to 10% | – | – | – | –
COc1ccc(CS(=O)(=O)/C=C/c2ccoc2)cc1 [Example 46, (E)-3-Furanethenyl-4-methoxybenzylsulfone] | > 80% | > 80% | > 80% | > 80% | – | – | – | –
O=[N+]([O-])c1cc(/C=C/S(=O)(=O)Cc2ccc(I)cc2)cs1 [Example 56, (E)-2-Nitro-4-thiopheneethenyl-4-iodobenzylsulfone] | 5 to 10% | 5 to 10% | 5 to 10% | 5 to 10% | – | – | – | –
N#Cc1ccc(CS(=O)(=O)/C=C/c2ccsc2)cc1 [Example 31, (E)-3-Thiopheneethenyl-4-cyanobenzylsulfone] | 5 to 10% | 5 to 10% | 5 to 10% | 5 to 10% | – | – | – | –
O=S(=O)(/C=C/c1ccc2ccccc2c1)Cc1ccc(Cl)cc1 [Example 65, (E)-2-Naphthaleneethenyl-4-chlorobenzylsulfone] | 5 to 10% | 5 to 10% | 5 to 10% | 5 to 10% | – | – | – | –
